# Test results published in patent US8492346B2, “Methods of use of epsilon inhibitor compounds for the attenuation of pain” (KAI Pharmaceuticals, Inc., priority 2007, dated 2013).
# “Also recorded” adds a separate entry of the source. Like-named read-outs stand apart in the source and are kept apart here. Marks after values point to notes of the source that are not given here.
# Legend:
# spared nerve pain = assay: Single spared nerve model; format: in vivo; conditions: preliminary, doses similar to carrageenan model
# From the text: (§1) While experiments with these models are continuing, additional work is being done in other pain models.
# [1] = Rat pharmacokinetics, plasma levels by sandwich-based ELISA; format: in vivo
# Experimental: To initially characterize the pharmacokinetics of KAI-1678 in rats, male rats were administered KAI-1678 at doses of 100 and 1,000 mcg/rat (˜300 and ˜3,000 mcg/kg) as an IV bolus injection via the tail vein. Blood samples were withdrawn periodically for up to two hours following the injection for plasma analysis of KAI-1678 levels. There were three and two animals in the 100 and 1,000 mcg dose groups, respectively, and there was consistency in KAI-1678 plasma concentrations between animals in each dose group.
# In the experiment shown in FIG. 29, male rats were administered KAI-1678 as a subcutaneous bolus injection (200 microL into the left hindleg) at doses of 25 or 250 mcg/animal (approximately 80 and 800 mcg/kg, respectively). Blood samples were taken at various time points over two hours after administration of the compound to determine plasma concentrations of KAI-1678. There were three and four animals in the 25 and 250 mcg/animal dose groups, respectively, and the KAI-1678 plasma concentration measurements were consistent between animals in each dose group. Cmax occurred within 10 minutes after injection and increased in a dose-proportional manner over the two doses tested.
# In the experiment shown in FIG. 30, male rats were administered KAI-1678 as a continuous subcutaneous infusion for 2 hours at doses of 19 and 190 mcg/kg/hr. Blood samples were taken at various time points throughout the infusion and for 1 hour after the end of infusion to determine plasma concentrations of KAI-1678. There were two animals per dose group and the plasma KAI-1678 concentration measurements were consistent between animals in each dose group. At the lower dose rate (19 mcg/kg/hr), plasma concentrations reached steady state (˜3 ng/mL) by 60 minutes and remained relatively constant throughout the rest of the infusion. […] At both dose rates, plasma concentrations of KAI-1678 dropped quickly after the end of infusion although compound was still detectable at both dose levels one hour after the end of infusion.
# [2] = tested on: L5 nerve transection-induced allodynia and hyperalgesia; assay: Chung (L5 spinal nerve transection) neuropathic pain model; format: in vivo, rat
# From the text: The Chung (L5 nerve transection) is a well-known model for chronic (neuropathic) pain. […]
# The activity of KAI-1678 has been evaluated in the L5 transection model or modified Chung model, is a mononeuropathic pain model in which the L5 spinal nerve is surgically transected, resulting in rapid development of sustained pain. The activity of KAI-1678 in this model is described below.
# The rat L5 spinal nerve transection model has been used to evaluate the response to modulators of neuropathic pain. In the studies described below surgical transaction of the L5 spinal nerve was used to elicit mechanical allodynia, mechanical hyperalgesia and thermal hyperalgesia that characterize neuropathic pain. In this model, the neuropathic effects develop within a day and are reported to last for 1-2 months.
# Mechanical allodynia and mechanical hyperalgesia are measured using calibrated von Frey filaments to elicit a flexion withdrawal response (paw withdrawal response) by pressing them against the plantar surface of the hindpaw on the same side as the nerve transection. The 2 g, 6 g and 10 g von Frey filaments are used to assess allodynia since these stimuli are normally innocuous to naïve animals. The 15 g, 26 g and 60 g filaments are used to assess algesia (response to noxious stimulus) since these stimuli elicit paw withdrawals in naïve animals and are considered to represent painful stimuli.
# The existence of the disease state following nerve transection is confirmed based on tests performed with the 2 g and the 10 g filaments.
# Once the disease state is confirmed, evaluation of the extent of mechanical allodynia or hyperalgesia is determined by observing the number of paw withdrawals in responsse to 5 tests with each of the von Frey filaments. Results are typically expressed either as the total number of paw withdrawals for the allodynic filaments (2 g, 6 g and 10 g for a total of 15 tests) or the algesic filaments (15 g, 26 g and 60 g for a total of 15 tests), or as the lowest filament to which the animals in a group have an average positive response defined as ≧3 withdrawals out of 5 tests with a particular filament. […]
# Rats given an L5 spinal nerve transection were treated with a bolus subcutaneous dose of KAI-1678 ranging from 0.00025-0.25 mcg/rat (˜0.001-1 mcg/kg) on day 7 post-transection. The degree of mechanical allodynia and hyperalgesia was evaluated based on the number of paw withdrawals (out of 30) in response to 6 different von Frey filaments before and up to 3 hours after administration of the compound.
# [3] = Dog toxicokinetics and tissue levels, 5-day subcutaneous infusion; conditions: for Tissue level, Dose Site Muscle, Mean / Tissue level, Dose Site Skin, Mean / Tissue level, Kidney, Mean / Tissue level, Liver, Mean / Tissue level, Lung, Mean / Tissue level, Peripheral Nerve, Mean / Tissue level, Skeletal Muscle, Mean / Tissue level, Spinal Cord, Mean / Tissue level, Brain, Mean: 25 mg/kg/day sc infusion five days
# From the text: The pharmacokinetics of KAI-1678 are being studied in rats administered the compound as an intravenous bolus and infusion or as a subcutaneous bolus and infusion. The toxicokinetics of KAI-1678 are being studied in dogs administered the compound as a subcutaneous infusion as part of the toxicity studies. In these studies, plasma levels of KAI-1678 have been determined using a sandwich-based ELISA assay developed at KAI Pharmaceuticals. The lower limit of quantitation of this assay is approximately 0.3 ng/mL. A similar assay has been developed to measure tissue levels of KAI-1678.
# As part of a range-finding toxicology study, 6 beagle dogs (one per sex per group) were administered continuous subcutaneous infusions of KAI-1678 for 5 days at dose levels of 3, 8 and 25 mg/kg/day. Blood samples were collected at various times on Day 1 (start of infusion) and Day 6 (after the end of infusion).
# As part of this study, tissues were harvested from a subset of the animals at the end of dosing.
# incision pain = assay: Brennan incision model; format: in vivo; conditions: preliminary, doses similar to carrageenan model
# From the text: as §1
# [4] = Rat pharmacokinetics, plasma levels by sandwich-based ELISA; format: in vivo; remark: listed apart in the source
# [5] = subcutaneous bolus 0.1 and 1 mcg/kg
substance,measurement,setting,value
Ac-EAVSLKPTGGYGRKKRRQRRR-NH2 [KAI-1678],Activity in single spared nerve model,spared nerve pain,also active in these models
same,Clearance from systemic circulation,[1]; intravenous bolus,rapidly cleared from systemic circulation
same,level at 1 h,"[1]; male, rat, plasma, sc, 19 ug/kg/hr, subcutaneous infusion 19 mcg/kg/hr, by 60 minutes, read-out: Steady state plasma concentration",~3 ng/mL
same,Tmax,"[1]; male, rat, plasma, sc, subcutaneous bolus, read-out: Time of maximum plasma concentration (converted)",~10 min
same,half-life,"[1]; rat, in vivo, iv, 300 ug/kg, IV bolus ~300 mcg/kg, preliminary, read-out: Terminal half-life",~38 min
same,half-life,"[1]; rat, in vivo, iv, IV bolus ~300 mcg/kg, preliminary, read-out: Terminal half-life",~38 min
same,half-life,"[1]; rat, in vivo, iv, IV bolus ~3,000 mcg/kg, preliminary, read-out: Terminal half-life",~66 min
same,half-life,"[1]; rat, in vivo, iv, intravenous bolus, read-out: Terminal half-life",~50 min
same,half-life,"[1]; rat, in vivo, sc, 800 ug/kg, subcutaneous bolus approximately 80 and 800 mcg/kg, read-out: Terminal half-life",~35 min
same,half-life,"[1]; rat, in vivo, sc, subcutaneous infusion, read-out: Half-life after end of infusion",~30 min
same,Cmax,"[1]; rat, in vivo, sc, subcutaneous infusion 190 mcg/kg/hr for 2 hours",~60 ng/mL
same,bioavailability,"[1]; rat, in vivo, sc, subcutaneous route vs intravenous bolus",~10%
same,Dose proportionality of exposure,"[1]; subcutaneous bolus (80, 800 mcg/kg) or infusion (19, 190 mcg/kg/hr)",dose-proportional increases in exposures
same,Half-life after end of infusion,[1]; subcutaneous infusion,~45 min
same,Time of maximum plasma concentration,[1]; subcutaneous infusion,~1 h
same,"Mechanical allodynia, 10 g filament","[2]; minipump 0.025 and 0.25 mcg/day, lasted until Day 7 post-pump implantation",nearly complete reversal of mechanical allodynia
same,Duration of anti-hyperalgesic effect,[2]; [5],at least 2 hours
same,"Mechanical hyperalgesia, 15 g, 26 g and 60 g von Frey filaments",[2]; [5],completely reverses mechanical hyperalgesia
same,Doses giving dose-dependent decrease in mechanical allodynia and mechanical hyperalgesia,"[2]; subcutaneous bolus, day 7 post-transection, FIG. 25",≥ 0.01 µg/kg
same,Potency relative to carrageenan-induced inflammatory pain model,[2]; subcutaneous infusion,about 1000 fold
same,Dose rates substantially reducing mechanical allodynia,"[2]; subcutaneous osmotic minipump, 10 g filament, FIG. 26",≥ 0.0025 µg/day
same,"Tissue level, Dose Site Muscle, Mean","[3]; Animal 4001, male",111 ng KAI-1678/g tissue
same,"Tissue level, Dose Site Skin, Mean","[3]; Animal 4001, male",1139 ng KAI-1678/g tissue
same,"Tissue level, Kidney, Mean","[3]; Animal 4001, male",689 ng KAI-1678/g tissue
same,"Tissue level, Liver, Mean","[3]; Animal 4001, male",224 ng KAI-1678/g tissue
same,"Tissue level, Lung, Mean","[3]; Animal 4001, male",254 ng KAI-1678/g tissue
same,"Tissue level, Peripheral Nerve, Mean","[3]; Animal 4001, male",429 ng KAI-1678/g tissue
same,"Tissue level, Skeletal Muscle, Mean","[3]; Animal 4001, male",133 ng KAI-1678/g tissue
same,"Tissue level, Spinal Cord, Mean","[3]; Animal 4001, male",11 ng KAI-1678/g tissue
same,"Tissue level, Brain, Mean","[3]; Animal 4001, male, includes a data point below limit of quantitation",6* ng KAI-1678/g tissue
same,"Tissue level, Brain, Mean","[3]; Animal 4501, female",7 ng KAI-1678/g tissue
same,"Tissue level, Dose Site Muscle, Mean","[3]; Animal 4501, female",1003 ng KAI-1678/g tissue
same,"Tissue level, Dose Site Skin, Mean","[3]; Animal 4501, female",6165 ng KAI-1678/g tissue
same,"Tissue level, Kidney, Mean","[3]; Animal 4501, female",3054 ng KAI-1678/g tissue
same,"Tissue level, Liver, Mean","[3]; Animal 4501, female",1505 ng KAI-1678/g tissue
same,"Tissue level, Lung, Mean","[3]; Animal 4501, female",1364 ng KAI-1678/g tissue
same,"Tissue level, Peripheral Nerve, Mean","[3]; Animal 4501, female",155 ng KAI-1678/g tissue
same,"Tissue level, Skeletal Muscle, Mean","[3]; Animal 4501, female",33 ng KAI-1678/g tissue
same,"Tissue level, Spinal Cord, Mean","[3]; Animal 4501, female",140 ng KAI-1678/g tissue
same,Clearance from systemic circulation / plasma level after end of infusion,"[3]; subcutaneous infusion over 5 days, 3, 8 and 25 mg/kg/day",rapidly cleared from the systemic circulation; also recorded: declined quickly upon cessation of infusion
same,Levels in brain and spinal cord,"[3]; subcutaneous infusion over 5 days, end of infusion",consistently low
same,Activity in Brennan incision model,incision pain,also active in these models
same,Steady state plasma concentration,[4]; 2-hr intravenous infusion at 50 mcg/kg/hr,10 to 20 ng/mL
same,half-life,"[4]; rat, in vivo, iv, intravenous infusion, read-out: Terminal half-life",~25 min
